This is an account of results in US5948796A, “Benzo[B]thiophene compounds, intermediates, formulations, and methods” (Eli Lilly and Company, priority 1997, dated 1999).

SMILES strings stand for the structures. pIC50: −log10 of the molar value. Where a name gives a salt, the structure may show the parent alone.

The test system of one assay is Eosinophil peroxidase. Briefly: Uterine Eosinophil Peroxidase (EPO) Assay in ovariectomized rats. Conditions: daily for 4 days, OVX rats, * p < 0.05. The format is in vivo, female Sprague Dawley rats. As to the method: (§1) In the examples illustrating the methods, a post-menopausal model was used in which effects of different treatments upon circulating lipids were determined.
(§2) Seventy-five day old female Sprague Dawley rats (weight range of 200 to 225 g) are obtained from Charles River Laboratories (Portage, Mich.). The animals are either bilaterally ovariectomized (OVX) or exposed to a Sham surgical procedure at Charles River Laboratories, and then shipped after one week. Upon arrival, they are housed in metal hanging cages in groups of 3 or 4 per cage and have ad libitum access to food (calcium content approximately 0.5%) and water for one week. Room temperature is maintained at 22.2°±1.7° C. with a minimum relative humidity of 40%. The photoperiod in the room is 12 hours light and 12 hours dark.
(§3) Dosing Regimen Tissue Collection. After a one week acclimation period (therefore, two weeks post-OVX) daily dosing with test compound is initiated. 17α-ethynyl estradiol or the test compound are given orally, unless otherwise stated, as a suspension in 1% carboxymethylcellulose or dissolved in 20% cyclodextrin. Animals are dosed daily for 4 days. Following the dosing regimen, animals are weighed and anesthetized with a ketamine: Xylazine (2:1, V:V) mixture and a blood sample is collected by cardiac puncture. The animals are then sacrificed by asphyxiation with CO2, the uterus is removed through a midline incision, and a wet uterine weight is determined.
Uterine Eosinophil Peroxidase (EPO) Assay. Uteri are kept at 4° C. until time of enzymatic analysis. The uteri are then homogenized in 50 volumes of 50 mM Tris buffer (pH-8.0) containing 0.005% Triton X-100. Upon addition of 0.01% hydrogen peroxide and 10 mM O-phenylenediamine (final concentrations) in Tris buffer, increase in absorbance is monitored for one minute at 450 nm. The presence of eosonophils in the uterus is an indication of estrogenic activity of a compound. The maximal velocity of a 15 second interval is determined over the initial, linear portion of the reaction curve.
(§4) In accordance with the above procedures, compounds of the present invention and ethynyl estradiol (EE2) in 20% hydroxypropyl β-cyclodextrin are orally administered to test animals.

Assay [1] has as its system ovariectomized (OVX) female Sprague Dawley rats, uterus. Briefly: Uterine weight in ovariectomized rats (post-menopausal model). The format is in vivo. Conditions: daily for 4 days, * p < 0.05. On the procedure:
as §1, §2, §3, §4

In assay [2] the test system is MCF-7 breast adenocarcinoma cells. Put plainly: MCF-7 Proliferation Assay. The class given is cell-based. Conditions: Homo sapiens, MCF7; MCF-7 cells; 48 hours; tritiated thymidine pulse 4 hours. On the procedure: As evidence of the current invention treat estrogen dependent cancer, the following assay was performed.
MCF-7 Proliferation Assay
MCF-7 breast adenocarcinoma cells (ATCC HTB 22) were maintained in MEM (minimal essential medium, phenol red-free, Sigma, St. Louis, Mo.) supplemented with 10% fetal bovine serum (FBS) (V/V), L-glutamine (2 mM), sodium pyruvate (1 mM), HEPES {(N-[2-hydroxyethyl]piperazine-N'-[2-ethanesulfonic acid]10 mM}, non-essential amino acids and bovine insulin (1 ug/mL) (maintenance medium). Ten days prior to assay, MCF-7 cells were switched to maintenance medium supplemented with 10% dextran coated charcoal stripped fetal bovine serum (DCC-FBS) assay medium) in place of 10% FBS to deplete internal stores of steroids. MCF-7 cells were removed from maintenance flasks using cell dissociation medium [Ca++/Mg++ free HBSS (phenol red-free) supplemented with 10 mM HEPES and 2 mM EDTA]. Cells were washed twice with assay medium and adjusted to 80,000 cells/mL. Approximately […] (8,000 cells) were added to flat-bottom microculture wells (Costar 3596) and incubated at 37° C. in a 5% CO2 humidified incubator for 48 hours to allow for cell adherence and equilibration after transfer. […] Samples were counted by liquid scintillation using a Wallac BetaPlace β counter. […]

A further assay deals with serum cholesterol. Put plainly: Cholesterol Analysis (serum cholesterol in ovariectomized rats). Conditions: daily for 4 days, OVX rats, * p < 0.05. The format is in vivo, female Sprague Dawley rats. On the procedure:
as §1, §2, §3
Cholesterol Analysis. Blood samples are allowed to clot at ambient temperature for 2 hours, and serum is obtained following centrifugation for 10 minutes at 3000 rpm. Serum cholesterol is determined using a Boehringer Mannheim Diagnostics high performance cholesterol assay. Briefly, the cholesterol is oxidized to cholest-4-en-3-one and hydrogen peroxide. The hydrogen peroxide is then reacted with phenol and 4-aminophenazone in the presence of peroxidase to produce a p-quinone imine dye, which is read spectrophotemetrically at 500 nm. Cholesterol concentration is then calculated against a standard curve.
as §4

One may read the pIC50 as −log10 of the IC50, conventionally taken in molar units. The low end stands for a high IC50, the high end for a low IC50.

Consider `C#C[C@]1(O)CC[C@H]2[C@@H]3CCc4cc(O)ccc4[C@H]3CC[C@@]21C` [EE2, 17α-ethynyl estradiol, reference compound], for which, in the assay with Eosinophil peroxidase (dose printed "0." mg/kg PO), the “Uterine EPO (Vmax)” value is given as 142.4. The “Uterine Wt. (% Inc.), % increase versus the ovariectomized controls” value in assay [1] (dose printed "0." mg/kg PO) is 171.2%.
In assay [2], `COc1ccc(-c2sc3cc(C)ccc3c2C(=O)c2ccc(OCCN3CCCCC3)cc2)cc1` [Example 1, [2-(4-Methoxyphenyl)-6-methylbenzo[b]thien-3-yl}[4-[2-(1-piperdinyl)ethoxy]phenyl]methanone Hydrochloride] gave a negative-log IC50 (pIC50) of 6.30. For the same compound, the “Serum Cholesterol (% Dec.), decrease versus ovariectomized controls” value is recorded as -20.3% with serum cholesterol (0.1 mg/kg PO), 17.2% in the assay with serum cholesterol (1 mg/kg PO) and 34.8% in the assay with serum cholesterol (10 mg/kg PO). Further, the “Uterine EPO (Vmax)” value with Eosinophil peroxidase (0.1 mg/kg PO) came out at 1.4; in the assay with Eosinophil peroxidase (1 mg/kg PO), 1.6; with Eosinophil peroxidase (10 mg/kg PO), 5.2. For the same compound, the “Uterine Wt. (% Inc.), % increase versus the ovariectomized controls” value in assay [1] (0.1 mg/kg PO) is reported as -11.4%; in assay [1] (1 mg/kg PO) it was -4.6%; in assay [1] (10 mg/kg PO), 2.1%.
`Cc1ccc2c(C(=O)c3ccc(OCCN4CCCCC4)cc3)c(-c3ccc(O)cc3)sc2c1` [Example 2, [2-(4-Hydroxyphenyl)-6-methylbenzo[b]thien-3-yl}[4-[2-(1-piperdinyl)ethoxy]phenyl]methanone Hydrochloride] showed a pIC50 in assay [2] of 7.00. Also, the results for the “Serum Cholesterol (% Dec.), decrease versus ovariectomized controls” value in the assay with serum cholesterol (0.1 mg/kg PO), in the assay on serum cholesterol (1 mg/kg PO) and in the assay on serum cholesterol (10 mg/kg PO) were 16.9%, 33.8% and 21.6%, respectively. Also, the “Uterine EPO (Vmax)” value was determined as 2.0 in the assay with Eosinophil peroxidase (0.1 mg/kg PO), 2.8 in the assay on Eosinophil peroxidase (1 mg/kg PO) and 2.9 in the assay on Eosinophil peroxidase (10 mg/kg PO). In addition, the “Uterine Wt. (% Inc.), % increase versus the ovariectomized controls” value in assay [1] (0.1 mg/kg PO) is reported as -9.0%; in assay [1] (1 mg/kg PO), 23.9%; in assay [1] (10 mg/kg PO), 29.0%.
